# Experimental data published in patent US9121806B1, “Impedance spectroscopy-based cellular analysis device” (University of South Florida, priority 2007, dated 2015).
# Tested on: OvCa429 cells
# Assay: Effect of trypsin on confluent OvCa429 cell culture monitored by impedance phase angle mapping
# Type: cell-based
# Details: 20 μl of trypsin added to culture medium after 5 h of monitoring, approximately 80% confluence, monitored over 18 h
# Method: Ovarian cancer line OvCa429 were grown in M199 and MCDB 105 (1:1) (Sigma, St Louis, Mo.) supplemented with 10% fetal calf serum (Sigma), 2 mM L-glutamine, 100 units ml-1 penicillin and 100 μgml-1 streptomycin under 5% CO2, and 37 .C high-humidity atmosphere. The cell culture medium was changed every 2-3 days, depending on the rate of cell growth. Cells were sub-cultured using 1× trypsin solution directly on the multielectrode device Impedance data were taken at room temperature of about 22° C. After each recording the cells were placed back in to the incubator. The cell culture medium was not changed throughout the course of the experiment. Impedance measurements were recorded on two separate devices (control and variable) beginning at approximately 80% confluence of the OvCa culture. After 5 h of recording measurements at an interval of approximately 1 h, 20 μl of trypsin was added to the cell culture medium of variable. Trypsin was not added to the control. The impedance was recorded under room conditions and the devices were placed back in the incubator after each measurement frame.
# In order to affirm the utility of impedance mapping for tracking physiological changes, the effect of trypsin on the confluent cell culture was analyzed. […] FIG. 6 is the phase angle mapping of control and trypsinized cultures monitored over a period of 18 h.
substance,measurement,value
trypsin,effect of trypsin on the confluent cell culture (phase angle shape / cell detachment),detached the cells from the substrate
